This is an account of results in patent US20080132454A1, “Antihypertensive Peptides” (priority 2004, published 2008).

Residues, ends and D or L forms follow the SMILES beside them. No end group written: not given here.

In data set [1] the target is T1, angiotensin converting enzyme (ACE) (Oryctolagus cuniculus, UniProt P12822).
T1 construct: purchased Sigma
T1 sequence (P12822 34-1310): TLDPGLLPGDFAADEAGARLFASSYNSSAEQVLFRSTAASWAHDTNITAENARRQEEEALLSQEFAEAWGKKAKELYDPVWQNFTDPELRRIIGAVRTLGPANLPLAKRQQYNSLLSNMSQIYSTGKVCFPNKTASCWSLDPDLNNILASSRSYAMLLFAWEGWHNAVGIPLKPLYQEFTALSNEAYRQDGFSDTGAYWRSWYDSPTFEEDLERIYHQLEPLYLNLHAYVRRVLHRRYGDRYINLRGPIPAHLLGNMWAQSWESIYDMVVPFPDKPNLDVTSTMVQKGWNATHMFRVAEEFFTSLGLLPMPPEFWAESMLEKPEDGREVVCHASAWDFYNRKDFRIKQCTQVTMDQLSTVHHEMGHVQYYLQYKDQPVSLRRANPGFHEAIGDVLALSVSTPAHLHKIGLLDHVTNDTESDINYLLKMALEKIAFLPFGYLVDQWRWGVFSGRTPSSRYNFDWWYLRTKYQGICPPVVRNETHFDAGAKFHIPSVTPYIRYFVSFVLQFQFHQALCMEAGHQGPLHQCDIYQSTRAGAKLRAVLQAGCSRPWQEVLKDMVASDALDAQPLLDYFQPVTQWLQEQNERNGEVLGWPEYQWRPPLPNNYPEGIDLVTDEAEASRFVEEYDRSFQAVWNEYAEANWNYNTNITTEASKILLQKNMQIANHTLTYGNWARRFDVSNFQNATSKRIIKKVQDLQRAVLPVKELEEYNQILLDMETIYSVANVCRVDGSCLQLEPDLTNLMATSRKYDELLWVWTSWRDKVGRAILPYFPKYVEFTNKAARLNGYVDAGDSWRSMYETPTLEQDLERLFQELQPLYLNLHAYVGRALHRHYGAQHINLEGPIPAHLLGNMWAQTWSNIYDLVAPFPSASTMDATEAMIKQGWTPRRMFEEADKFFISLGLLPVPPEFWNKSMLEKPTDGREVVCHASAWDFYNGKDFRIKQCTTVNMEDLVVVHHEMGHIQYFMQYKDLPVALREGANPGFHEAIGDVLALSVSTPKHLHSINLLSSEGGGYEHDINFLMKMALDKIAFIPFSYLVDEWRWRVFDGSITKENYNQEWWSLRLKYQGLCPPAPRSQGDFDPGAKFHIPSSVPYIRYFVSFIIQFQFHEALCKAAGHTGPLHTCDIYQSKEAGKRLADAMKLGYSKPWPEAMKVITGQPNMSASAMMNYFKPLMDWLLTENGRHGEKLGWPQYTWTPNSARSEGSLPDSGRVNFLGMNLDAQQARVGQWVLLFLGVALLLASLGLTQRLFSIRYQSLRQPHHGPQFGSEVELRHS
The data set can be described thus: ACE assay with purified ACE enzyme (Inhibition of Angiotensin Converting Enzyme). It is filed as biochemical. The note with it: purified ACE enzyme (Sigma); for ACE inhibiting activity (in words): judged from IC50 values; for IC50: synthetic peptides, purity >95%. On the procedure: In order to determine IC50 values for the peptides included in this invention, pure peptides (purity of >95% in weight) were prepared by custom solid-phase synthesis on a 10 μmol scale and subsequently purified by HPLC (synthesis and purification performed by Eurosequence, the Netherlands). Purified ACE enzyme (Sigma) was used for the ACE assay (Wu et al. 2002 J. Chromatography 950, 125-130). […] Finally, the peptides which are fragments of the amino acid sequences shown in SEQ ID NO: 1, SEQ ID NO: 2 and SEQ ID NO: 3, respectively SEQ ID NO: 7, SEQ ID NO: 8 and SEQ ID NO: 9 were tested for their ACE inhibiting activity.

Data set [2] is described as follows: Bioavailability: peptide amount in plasma after oral administration to mice. The note with it: mouse, 500 ug, Balb/C mice, 500 μg each orally, two hours after administration, HPLC-MS. The class given is in vivo. On the procedure: Peptides SEQ ID NO: 1, SEQ ID NO: 2 and SEQ ID NO: 3 (purity of >95% in weight, 500 μg each) were orally administered to mice (Balb/C, 3 months of age). After 2 hours, mice were sacrificed and a blood sample collected. After centrifugation of the blood sample (5 min, 3000 g) plasma was collected, dried and resuspended in ethyl acetate. The samples were then analyzed by HPLC-MS, and the amount of the peptides of this invention present in the plasma samples calculated using standard curves. Two hours after their oral administration, all three peptides were found in the plasma samples in the following amounts: SEQ ID NO: 1: 7.5 μg/ml, SEQ ID NO: 2: 1.2 μg/ml, and SEQ ID NO: 3: 0.9 μg/ml.

Regarding YGPIPN [SEQ ID NO: 1], in data set [1], the “ACE inhibiting activity (in words)” value was “strong inhibitors of ACE” and half-maximal inhibition (IC50) was put at 317 µM. In data set [2], this compound came in with a level at 2 h of 7500 ng/mL.

In the case of `NCCCC[C@H](NC(=O)[C@@H]1CCCN1C(=O)[C@H](CCC(=O)O)NC(=O)[C@@H](N)CO)C(=O)O` [SEQ ID NO: 3] (H-SEPK-OH; N-terminus and C-terminus assumed), in data set [1], the “ACE inhibiting activity (in words)” value is listed as “strong inhibitors of ACE” and it took 354 µM to reach half-maximal inhibition (IC50). This compound displayed a level at 2 h in data set [2] of 900 ng/mL.

Consider FYGPIPNS [SEQ ID NO: 4], for which, in data set [1], the “ACE inhibiting activity (in words)” value is given as “good ACE inhibitors” and the half-inhibitory concentration (IC50) (commonly the concentration needed to halve the response being measured) was found to be 435 µM.

On to `CC(C)C[C@H](N)C(=O)N1CCC[C@H]1C(=O)N[C@@H](CCC(=O)O)C(=O)O` [SEQ ID NO: 8] (H-Leu-Pro-Glu-OH; N-terminus and C-terminus assumed), for which, in data set [1], the “ACE inhibiting activity (in words)” value was “good ACE inhibitors” and the IC50 was 337 µM.

Regarding LSEPKV [SEQ ID NO: 6], in data set [1], the “ACE inhibiting activity (in words)” value is reported as “good ACE inhibitors” and half-maximal inhibition (IC50) required 397 µM.

On to `NCCCC[C@H](NC(=O)[C@@H]1CCCN1C(=O)[C@@H](N)CCC(=O)O)C(=O)O` [SEQ ID NO: 9] (H-Glu-Pro-Lys-OH; N-terminus and C-terminus assumed), for which, in data set [1], the “ACE inhibiting activity (in words)” value is reported as “good ACE inhibitors” and it took 364 µM to reach half-maximal inhibition (IC50).

For `CC(C)C[C@H](NC(=O)[C@@H](N)CO)C(=O)N1CCC[C@H]1C(=O)N[C@@H](CCC(=O)O)C(=O)O` [SEQ ID NO: 2] (H-SLPE-OH; N-terminus and C-terminus assumed), in data set [1], the “ACE inhibiting activity (in words)” value is reported as “strong inhibitors of ACE” and the IC50 worked out at 329 µM. For the same compound, the level at 2 h in data set [2] is 1200 ng/mL.

In the case of GPIPN [SEQ ID NO: 7], in data set [1], the “ACE inhibiting activity (in words)” value is on record as “good ACE inhibitors” and 287 µM corresponded to half-maximal inhibition (IC50).

Regarding NSLPEN [SEQ ID NO: 5], in data set [1], the “ACE inhibiting activity (in words)” value is given as “good ACE inhibitors” and half-maximal inhibition (IC50) required 369 µM.
